The source of these data is publication PMC5574958, “Radiosynthesis and Preclinical Evaluation of [^18F]F-DPA, A Novel Pyrazolo[1,5a]pyrimidine Acetamide TSPO Radioligand, in Healthy Sprague Dawley Rats” (Molecular Imaging and Biology, 2017).

The nature of the data set: Plasma protein binding (ultrafiltration of plasma after tracer injection). The class given is in vivo, Sprague Dawley rats. Conditions: 15 min after injection, 30 kDa ultrafiltration, n = 3. Here is the method: After 15 min, the animals were sacrificed and the blood was collected into Li-heparin tubes and centrifuged (3000×g, 10 min). A 10-μl aliquot of the plasma was spotted onto a TLC plate; following this, the remaining plasma was filtered by ultrafiltration using Microsep 30K Omega (Pall Life Sciences, Mexico) with a cut-off of 30 kDa. A 10-μl aliquot of the resulting supernatant was also spotted onto the TLC plate. The plates were exposed onto an imaging plate (Fuji BAS Imaging Plate TR2025, Fuji Photo Film Co., Ltd., Tokyo, Japan) for approximately two half-lives of fluorine-18 (3.5 to 4 h). After the exposure, the imaging plates were scanned using a BAS-5000 reader (Fuji, Japan) with a resolution of 50 μm and the saved images were analyzed using TINA software (version 2.10 g, Raytest, Isotopenmessgeräte, GmbH, Straubenhardt, Germany).

Regarding `CCN(CC)C(=O)Cc1c(-c2ccc([18F])cc2)nn2c(C)cc(C)nc12` [[^18F]F-DPA], the “Fraction of radioactivity unbound to the plasma proteins” value is 6.6 ± 3.1%.
